From US20260315552A1, “COMBINATION OF VITAMINS, 2'-FUCOSYLLACTOSE AND A PROBIOTIC FOR ENHANCING BONE GROWTH AND/OR BONE STRENGTH” (SOCIÉTÉ DES PRODUITS NESTLÉ S.A., priority 2023, published 2026) come the findings set out here.

For test [1], the system named is pre-osteoblastic cell line MC3T3-E1 subclone 4. Briefly: Osteoblast alkaline phosphatase (ALP) activity. The note with it: 7 days of differentiation, without ascorbic acid; MK-7 3 μM, VitA 100 nM all-trans-retinoic acid, VitD 1 nM 1α,25-Dihydroxyvitamin D3; FIG. 1A. It counts as cell-based. As to the method: (§1) (A) ALP activity after 7 days of differentiation (without ascorbic acid). (B) Osteocalcin mRNA levels after 21 days of differentiation (without ascorbic acid). (C) Osteocalcin mRNA levels after 28 days of differentiation (with ascorbic acid). Pos=positive control; Neg=negative control; MK-7=supplemented with 3 μM menaquinone-7; VitD=supplemented with 1 nM 1α,25-Dihydroxyvitamin D3; VitA=supplemented with 100 nM all-trans-retinoic acid.
ALP activity after 7 days of differentiation (without ascorbic acid). […]
The effect of SCFAs was further investigated. Three mixes of 75% acetate, 20% propionate, 5% butyrate were evaluated to mimic normal physiological conditions (20 μM SCFAs), physiological conditions following prebiotic supplementation (50 μM SCFAs), and physiological conditions following synbiotic supplementation (60 μM SCFAs). […]
After 7 days of differentiation, cells were then collected for alkaline phosphatase (ALP) activity measurement as described previously with minor modifications. […] Enzymatic reaction was monitored at 405 nm after 4-Nitrophenyl phosphate disodium salt hexahydrate addition. Michaelis-Menten kinetics were evaluated at 30° C. for 30 min. […] The activity value was normalized by protein content measured via the Pierce BCA Protein Assay Kit (ThermoFisher Scientific) according to the manufacturer's instructions.

Test [2] deals with osteocalcin (Ocn) in pre-osteoblastic cell line MC3T3-E1 subclone 4. Briefly: Osteocalcin mRNA levels (qPCR). To be noted: 21 days of differentiation, without ascorbic acid; MK-7 3 μM, VitA 100 nM, VitD 1 nM; FIG. 1B. It counts as cell-based. As to the method: as §1
The pre-osteoblastic cell line MC3T3-E1 subclone 4 (CRL-2593) was purchased from ATCC (Manassas; Virginia, USA). Cells were maintained in growth medium (GM) composed of ascorbic acid-free αMEM (ThermoFisher Scientific), supplemented with 10% fetal calf serum (FCS, ThermoFisher Scientific) and 1% penicillin/streptomycin. All culture media were refreshed every 2-3 days. Cells were passaged with trypsin/EDTA solution at less than 80% confluence. To induce differentiation into osteoblasts, cells were seeded at 5×10^4 cells/cm^2 and grown to confluency in GM for 24 h. Then, the medium was switched to differentiation medium (DM) composed of GM supplemented with 10 mM β-glycerophosphate and treatment solutions of interest. Ascorbic acid 50 μg/ml was also added to the DM depending on the experiment.
MC3T3-E1 subclone 4 cells were differentiated for 21 days (in DM without ascorbic acid except for the positive control) or 28 days (in DM containing ascorbic acid). Cells were then collected for gene expression analysis. RNA was extracted using the RNeasy plus mini kit (Qiagen; Hilden, Germany) with the QIAcube (Qiagen,) according to the manufacturer's instructions. Briefly, cells were lysed in RLT buffer and spun in a QIAshredder column (Qiagen) before being processed by the QIAcube. RNA concentrations were measured using the DropSense96 (TRINEAN, Gentbrugge, Belgium).
cDNAs were synthetized using High-Capacity cDNA Reverse Transcription Kit (AppliedBiosystems; Waltham, Massachusetts, USA) according to the manufacturer's instructions. […] The relative gene expression was evaluated via the 2^-ΔCt method.
(In general: Quantitative PCR measures a nucleic acid by following its amplification.)

In the case of `CC(C)=CCC/C(C)=C/CC/C(C)=C/CC/C(C)=C/CC/C(C)=C/CC/C(C)=C/CC/C(C)=C/CC1=C(C)C(=O)c2ccccc2C1=O` [vitamin K2, menaquinone-7], the “effect on ALP activity (marker of osteoblast differentiation)” value in test [1] is “no significant effect”. Besides, the “effect on osteocalcin expression” value in test [2] is “significant effect”.
Take `C=C1/C(=C\C=C2/CCC[C@]3(C)[C@@H]([C@H](C)CCCC(C)(C)O)CC[C@@H]23)C[C@@H](O)C[C@@H]1O` [vitamin D, 1α,25-Dihydroxyvitamin D3]: the “effect on osteocalcin expression” value in test [2] is “no significant effect”.
Same read-out and setting: next, `CC1=C(/C=C/C(C)=C/C=C/C(C)=C/C(=O)O)C(C)(C)CCC1` [vitamin A, all-trans-retinoic acid]: “no significant effect”.
